Assays:
[1] = Dissociation constant, pKa of the compound; assay type: physicochemical
Cytochrome P450 2D6 = Cytochrome P450 2D6 (Homo sapiens, UniProt P10635); assay: Inhibition of CYP2D6 (unknown origin); assay type: ADME
[2] = AUCtot in CD-1 mouse at 3 mg/kg, po by LC/MS analysis; assay type: ADME, organism-based; design: time AUCmax, route oral, dose 3 mg/kg; settings: in vivo
[3] = Cmax in CD-1 mouse at 3 mg/kg, po by LC/MS analysis; assay type: ADME, organism-based; design: route oral, dose 3 mg/kg; settings: in vivo
[4] = Metabolic stability in rat liver microsomes assessed as compound remaining; assay type: ADME, Microsome
[5] = Stability of compound at pH 1 assessed as half life; assay type: physicochemical; settings: buffer
Cytochrome P450 2B6 = target: T1, Cytochrome P450 2B6 (Homo sapiens, UniProt P20813); assay: Inhibition of CYP2B6 (unknown origin); assay type: ADME
T1 sequence (P20813 whole entry): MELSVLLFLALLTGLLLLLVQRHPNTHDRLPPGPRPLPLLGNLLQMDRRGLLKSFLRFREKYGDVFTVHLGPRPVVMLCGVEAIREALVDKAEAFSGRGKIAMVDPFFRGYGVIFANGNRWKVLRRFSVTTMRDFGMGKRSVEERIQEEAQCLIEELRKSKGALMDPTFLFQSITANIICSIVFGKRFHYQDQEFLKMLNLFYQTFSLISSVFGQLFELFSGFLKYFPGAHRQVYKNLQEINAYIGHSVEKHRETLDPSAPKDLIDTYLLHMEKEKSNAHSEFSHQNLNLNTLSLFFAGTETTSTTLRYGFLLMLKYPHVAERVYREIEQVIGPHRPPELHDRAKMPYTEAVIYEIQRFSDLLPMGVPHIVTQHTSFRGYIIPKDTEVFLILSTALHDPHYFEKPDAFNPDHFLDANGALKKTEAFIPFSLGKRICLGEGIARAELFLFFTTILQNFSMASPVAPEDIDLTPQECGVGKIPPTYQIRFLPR

[6] = Half life in CD-1 mouse at 3 mg/kg, po by LC/MS analysis; assay type: ADME, organism-based; settings: in vivo
[7] = Protein binding in human plasma assessed as free fraction; assay type: ADME, cell-free
animal or person = settings: Mus musculus, po, 6 h, read-out: INH
Cytochrome P450 3A4 = Cytochrome P450 3A4 (Homo sapiens, UniProt P08684); assay: Inhibition of CYP3A4 (unknown origin); assay type: ADME
[8] = Metabolic stability in human liver microsomes assessed as compound remaining; assay type: ADME, Microsome
Cytochrome P450 1A2 = target: T2, Cytochrome P450 1A2 (Homo sapiens, UniProt P05177); assay: Inhibition of CYP1A2 (unknown origin); assay type: ADME
T2 sequence (P05177 whole entry): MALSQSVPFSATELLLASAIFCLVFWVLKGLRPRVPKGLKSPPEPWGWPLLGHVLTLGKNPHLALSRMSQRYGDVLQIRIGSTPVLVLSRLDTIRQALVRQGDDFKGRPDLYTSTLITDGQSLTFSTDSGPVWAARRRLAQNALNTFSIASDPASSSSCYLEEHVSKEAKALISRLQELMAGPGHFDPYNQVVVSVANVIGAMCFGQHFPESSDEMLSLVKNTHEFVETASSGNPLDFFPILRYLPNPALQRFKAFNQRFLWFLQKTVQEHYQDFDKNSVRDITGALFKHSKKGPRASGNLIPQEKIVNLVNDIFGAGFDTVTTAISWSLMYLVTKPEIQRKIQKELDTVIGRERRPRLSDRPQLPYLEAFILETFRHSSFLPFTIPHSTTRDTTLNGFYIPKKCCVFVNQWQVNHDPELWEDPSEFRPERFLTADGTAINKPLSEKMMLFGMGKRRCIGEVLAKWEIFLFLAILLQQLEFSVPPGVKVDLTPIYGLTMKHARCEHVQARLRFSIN

Eosinophil peroxidase = target: T3, Eosinophil peroxidase (Homo sapiens, UniProt P11678); assay: Inhibition of human EPX bromination activity using tyrosine as substrate by measuring 3-bromo tyrosine formation incubated for 10 mins
T3 sequence (P11678 whole entry): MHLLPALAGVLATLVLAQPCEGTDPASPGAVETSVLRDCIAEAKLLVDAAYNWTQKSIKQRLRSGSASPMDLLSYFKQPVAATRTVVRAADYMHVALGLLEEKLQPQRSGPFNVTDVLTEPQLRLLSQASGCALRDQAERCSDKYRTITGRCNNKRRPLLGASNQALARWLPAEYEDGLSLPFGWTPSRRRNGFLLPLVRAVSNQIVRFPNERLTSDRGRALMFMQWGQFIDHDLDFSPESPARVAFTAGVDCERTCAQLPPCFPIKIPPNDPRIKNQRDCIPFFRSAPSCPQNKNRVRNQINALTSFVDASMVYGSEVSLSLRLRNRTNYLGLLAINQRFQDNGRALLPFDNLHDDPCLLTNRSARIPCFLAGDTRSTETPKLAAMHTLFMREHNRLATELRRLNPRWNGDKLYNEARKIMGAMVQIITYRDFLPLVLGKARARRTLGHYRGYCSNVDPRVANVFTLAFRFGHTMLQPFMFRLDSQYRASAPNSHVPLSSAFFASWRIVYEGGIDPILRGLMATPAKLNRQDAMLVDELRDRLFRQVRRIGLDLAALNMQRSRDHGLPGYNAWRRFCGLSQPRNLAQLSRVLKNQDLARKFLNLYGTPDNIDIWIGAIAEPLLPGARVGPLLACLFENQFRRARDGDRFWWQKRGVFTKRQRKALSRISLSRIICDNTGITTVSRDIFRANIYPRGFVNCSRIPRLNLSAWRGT

[9] = Permeability of compound at pH 7.4 by PAMPA assay; assay type: ADME; settings: read-out: permeability
[10] = Metabolic stability in mouse liver microsomes assessed as compound remaining; assay type: ADME, Microsome
[11] = Protein binding in mouse plasma assessed as free fraction; assay type: ADME, cell-free
Cytochrome P450 2C8 = target: T4, Cytochrome P450 2C8 (Homo sapiens, UniProt P10632); assay: Inhibition of CYP2C8 (unknown origin); assay type: ADME
T4 sequence (P10632 whole entry): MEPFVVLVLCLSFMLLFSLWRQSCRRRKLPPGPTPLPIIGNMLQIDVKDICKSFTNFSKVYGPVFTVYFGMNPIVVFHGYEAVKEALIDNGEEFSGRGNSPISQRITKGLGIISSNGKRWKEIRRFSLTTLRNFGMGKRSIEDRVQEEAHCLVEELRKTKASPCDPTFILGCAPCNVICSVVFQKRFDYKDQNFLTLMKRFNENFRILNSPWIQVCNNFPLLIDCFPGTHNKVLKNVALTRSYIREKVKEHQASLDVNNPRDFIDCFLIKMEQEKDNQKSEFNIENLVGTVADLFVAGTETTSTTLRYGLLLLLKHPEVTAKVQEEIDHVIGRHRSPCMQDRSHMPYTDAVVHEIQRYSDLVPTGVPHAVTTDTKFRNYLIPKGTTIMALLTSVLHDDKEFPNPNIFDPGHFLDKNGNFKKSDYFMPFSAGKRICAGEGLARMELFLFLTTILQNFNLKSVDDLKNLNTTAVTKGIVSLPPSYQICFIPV

[12] = Plasma concentration in human MPO transgenic thioglycollate-induced peritonitis mouse model at 10 mg/kg, po measured after 6 hrs by LC/MS analysis; assay type: ADME, organism-based

Cytochrome P450 3A4, sequence (P08684 whole entry): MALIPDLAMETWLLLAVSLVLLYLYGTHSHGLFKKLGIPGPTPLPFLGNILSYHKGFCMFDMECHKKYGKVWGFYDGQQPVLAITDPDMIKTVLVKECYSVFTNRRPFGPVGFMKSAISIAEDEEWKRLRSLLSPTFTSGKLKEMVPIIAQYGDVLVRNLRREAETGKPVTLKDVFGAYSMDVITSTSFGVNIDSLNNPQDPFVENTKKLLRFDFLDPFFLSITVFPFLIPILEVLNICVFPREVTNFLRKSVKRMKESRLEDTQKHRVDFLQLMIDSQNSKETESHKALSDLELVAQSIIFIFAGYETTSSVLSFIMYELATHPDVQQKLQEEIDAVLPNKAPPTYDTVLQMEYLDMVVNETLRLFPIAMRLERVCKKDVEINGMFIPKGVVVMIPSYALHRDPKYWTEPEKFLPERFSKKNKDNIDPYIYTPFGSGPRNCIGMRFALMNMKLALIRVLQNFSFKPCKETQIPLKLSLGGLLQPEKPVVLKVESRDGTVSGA
Cytochrome P450 2D6, sequence (P10635 whole entry): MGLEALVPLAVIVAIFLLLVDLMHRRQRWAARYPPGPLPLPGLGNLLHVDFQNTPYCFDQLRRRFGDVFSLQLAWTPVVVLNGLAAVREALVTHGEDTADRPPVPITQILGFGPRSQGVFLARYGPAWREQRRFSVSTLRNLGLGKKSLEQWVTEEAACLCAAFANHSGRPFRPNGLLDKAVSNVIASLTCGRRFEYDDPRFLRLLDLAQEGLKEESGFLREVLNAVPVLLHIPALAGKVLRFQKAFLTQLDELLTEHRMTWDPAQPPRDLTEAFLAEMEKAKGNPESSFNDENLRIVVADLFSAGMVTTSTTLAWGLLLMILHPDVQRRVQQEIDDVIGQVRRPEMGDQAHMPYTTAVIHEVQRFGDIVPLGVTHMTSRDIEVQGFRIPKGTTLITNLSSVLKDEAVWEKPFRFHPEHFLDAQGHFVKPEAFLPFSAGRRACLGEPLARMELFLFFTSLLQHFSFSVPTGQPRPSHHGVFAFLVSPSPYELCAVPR

In the case of `Nc1cc(Cc2ccccc2)c2nn[nH]c2n1`, the pKa [1] is reported as 7.4, the IC50 (Cytochrome P450 2D6) is reported as greater than 10 µM and the AUC [2] is reported as 47.9 µM·h. For the same compound, the Cmax [3] was 13 µM, the Stabilty [4] was 86% and the half-life [5] was greater than 100 h. The IC50 (Cytochrome P450 2B6) was greater than 10 µM, the half-life [6] was 2 h and the fraction unbound [7] was 0.17. It also gave an inhibition in vivo at 30 mg/kg (animal or person) of 55%, an IC50 (Cytochrome P450 3A4) of 6.6 µM and a Stabilty [8] of 98%. It also gave an IC50 (Cytochrome P450 1A2) greater than 10 µM, an IC50 (Eosinophil peroxidase) of 0.032 µM and a Papp [9] of 31.3 ×10⁻⁶ cm/s. The Stabilty [10] was 39%, the fraction unbound [11] was 0.36 and the IC50 (Cytochrome P450 2C8) was greater than 10 µM. The concentration at 6 h [12] was 7 µM.
